Experimental data published in patent publication US7276484B2, “Dipeptide inhibitors of β-secretase” (Elan Pharmaceuticals, Inc., priority 1999, dated 2007).
Numbered stars: 1 amine (or outer) side, 2 acyl side, 3 side chain; on linkers, the order of the positions; unused ones are H or OH. Square brackets hold non-standard residues; d marks the D form. Ends that are not written are not given here. Peptide text beside a SMILES is read from it. * marks the point of attachment. 3,5‑difluoroPhe/Sta = 3,5-difluorobenzyl statine, O=C(C[C@H](O)[C@H](Cc1cc(F)cc(F)c1)N[*:1])[*:2]; Sta = CC(C)C[C@H](N)[C@@H](O)CC(=O)O; Isovaleryl = CC(C)CC(=O)*

Assays:
β-secretase = β-secretase (Homo sapiens, UniProt P56817); experiment: assays with β-secretase (pepstatin remark); assay type: biochemical
Human brain β-Secretase [1] = target: T1, Human brain β-Secretase (Homo sapiens, UniProt P56817); experiment: MBP-C125 enzyme inhibition assay (ELISA detection of β-secretase cleavage of MBP-C125 substrate); assay type: biochemical; conditions: pH 4.5, 37° C., 90 minutes, read-out: IC50 Grouping
T1 construct: Human brain β-Secretase from concentrated HiQ pool prepared Jul; from tissue; host or cells: human brain
Experimental: The inhibitory concentration data was obtained by use of the MBP-C125 assay, which determines the relative inhibition of β-secretase cleavage of an MPB-C125 substrate by the compounds assayed. Human brain β-Secretase from concentrated HiQ pool prepared Jul.
Inhibition data was obtained from an ELISA which uses an anti-MBP capture antibody (on precoated and blocked 96-well high binding plates) followed by incubation with diluted enzyme reaction supernatant, incubation with an anti-SW192 specific biotinylated reporter antibody and incubation with streptavidin/alkaline phosphatase. Detection was effected by a fluorescent substrate signal on cleavage by the phosphatase.
Compounds were diluted in a 1:1 dilution series to a six-point concentration curve (two wells per concentration) which took up one 96-plate row per compound tested.
Each of the test compounds was weighed out into a vial and DMSO was added to make up a 10 mM solution. To obtain a final compound concentration of 200 μM at the high point of a 6-point dilution curve, 100 μL of the 10 mM solution was added to well C1 of a 96-well V-bottom plate. Fifty μL of DMSO was added to odd wells of row C across the plate and 1:1 serial dilutions were made. 10 μL of each dilution was added to each of two wells on row C of a corresponding V-bottom plate to which 190 μL of 52 mM NaOAc/7.9% DMSO, pH 4.5 were pre-added. […] The compound concentration in the final enzyme reaction was thus 50 times less than the starting concentration. The final reaction mixture of 200 μM compound for the highest curve point was in 5% DMSO, 20 mM NaAc, 0.06% TX100, at pH 4.5. The enzyme reaction was started by warming the plates to 37° C. After 90 minutes at 37° C., 200 μL/well cold specimen diluent was added to stop the reaction and 20 μL/well was transferred to a corresponding α-MBP coated ELISA plate, containing 80 μL/well specimen diluent. […] The signal was read on a fluorescent plate reader.

Human brain β-Secretase [2] = target: Human brain β-Secretase (human, UniProt P56817 46-501, limits assumed); experiment: cell-based or functional assay
Chain of Human brain β-Secretase (human, UniProt P56817 46-501, limits assumed) (P56817 46-501 limits assumed): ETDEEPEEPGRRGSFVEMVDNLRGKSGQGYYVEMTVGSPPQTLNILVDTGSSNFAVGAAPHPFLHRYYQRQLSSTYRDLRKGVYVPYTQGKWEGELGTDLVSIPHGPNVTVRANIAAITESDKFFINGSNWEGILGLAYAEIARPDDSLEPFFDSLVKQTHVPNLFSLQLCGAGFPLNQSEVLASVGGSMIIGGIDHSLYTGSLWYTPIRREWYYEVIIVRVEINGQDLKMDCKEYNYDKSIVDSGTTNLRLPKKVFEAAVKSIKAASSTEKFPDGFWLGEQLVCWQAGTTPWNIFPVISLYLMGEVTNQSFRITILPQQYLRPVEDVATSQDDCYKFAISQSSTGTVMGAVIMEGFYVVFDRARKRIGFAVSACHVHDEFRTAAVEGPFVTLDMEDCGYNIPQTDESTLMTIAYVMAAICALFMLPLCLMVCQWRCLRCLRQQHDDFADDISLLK

T1 sequence (P56817 46-501): as the sequence (P56817 46-501 limits assumed) above
Chain of β-secretase (P56817 46-501): as the sequence (P56817 46-501 limits assumed) above

For CC(C)CC(=O)N[C@H](C(=O)N[C@H](C(=O)N[C@@H](CC(C)C)[C@@H](O)CC(=O)N[C@@H](C)C(=O)N[C@@H](CC(C)C)[C@@H](O)CC(=O)O)C(C)C)C(C)C [pepstatin] (Isovaleryl-VV[Sta]A[Sta]-OH), the “inhibitory activity in assays with β-secretase” value (β-secretase) was “no inhibitory activity”.

For CCCN(CCC)C(=O)c1cccc(CNC(Cc2cc(F)cc(F)c2)C(O)CC(=O)NC(C(=O)NC2CC(C(=O)O)CC(C(=O)O)C2)C(C)C)c1 (stereo not drawn) [Example 54, 3-N,N-di-n-propyl-carboxamidobenzyl-difluorophenylstatine-Val-1-amino-3,5-cis,cis-cyclohexyldicarboxylic acid], the IC50 (Human brain β-Secretase [1]) was under 10 µM.

Work on “2-carboxy-diphenylether coupled with the peptide 3,5-difluoroPhe/Sta-Val-Ala-Glu-Phe [Example 29]” yielded an IC50 (Human brain β-Secretase [1]) of under 10 µM.

“geminal dimethyl glutaric dimethylamide group coupled to the derivatized Sta-Val-Ala-Glu-Phe pentapeptide [Example 32]” gave an IC50 (Human brain β-Secretase [1]) of 10 to 99 µM.

Molecule COC(=O)c1cccc(C(=O)N[C@@H](Cc2cc(F)cc(F)c2)[C@@H](O)CC(=O)N[C@H](C(=O)NC2CC(C(=O)O)C[C@H](C(=O)O)C2)C(C)C)c1 (some centres unmarked) [Example 39] has an IC50 (Human brain β-Secretase [1]) of under 10 µM.

“4-carboxycinnoline coupled to the 3,5-difluoroPhe/Sta-Val-Ala-Glu-Phe [Example 44]” showed an IC50 (Human brain β-Secretase [1]) of 10 to 99 µM.

Work on “glutaric acid piperidine amide coupled with the derivatized Sta-Val-Ala-Glu-Phe pentapeptide [Example 33]” yielded an IC50 (Human brain β-Secretase [1]) of 10 to 99 µM.

For {2‑carboxy‑diphenylether}-[3,5‑difluoroPhe/Sta]VAEF [Example 29: 2-carboxy-diphenylether coupled with the peptide 3,5-difluoroPhe/Sta-Val-Ala-Glu-Phe], the “IC50 Grouping (MBP-C125 enzyme inhibition assay, ELISA read-out)” value (Human brain β-Secretase [2]) was under 10 µM.
